What was measured:
[1] = chemical stability on standing / by HPLC during work-up; type: physicochemical; details: kept at room temperature overnight
Description: The process was repeated. The mother liquor materials were combined. A 15-g portion of the mother liquor material (a syrupy liquid) was subjected to a water-acid-base extraction by dissolving the mother liquor in 50 mL of ethyl acetate and washing with water then with 1N HCl (2×). The ethyl acetate layer contained 2-((2-ethoxyphenoxy)methyl)morpholine, unreacted BOC compound 5, and a trace of the desired compound. The HCl solution was mainly the desired amine 6 HCl salt plus some 2-((2-ethoxyphenoxy)methyl)morpholine and a minor impurity. This solution was made alkaline with sodium bicarbonate, extracted with dichloromethane (3×) washed with brine, and dried over magnesium sulfate. […] The material was kept at room temperature overnight whereupon it decomposed.
The ethyl acetate solution of the free base was treated with a solution of 150 mg of maleic acid in 2 mL of isopropanol. […] The material was dissolved in dichloromethane, washed with water, and evaporated to give 374 mg of the maleate as an oil.

[2] = relative to the (R)-(+)-isomer; J. Med. Chem. 1976, 19(8), 1074; cited from earlier work

CCOc1ccccc1OC[C@@H]1CN(C(=O)OC(C)OC(=O)[C@@H](N)C(C)C)CCO1.Cl (mixture of isomers) [Compound 6, 1-[(S)-2-Amino-3-methylbutyroxy]ethyl (S)-2-[(o-ethoxyphenoxy)methyl]-4-morpholinecarboxylate, hydrochloride]
stability of the isolated material [1]: decomposed

CCOc1ccccc1OC[C@@H]1CNCCO1 [(S)-enantiomer, (S)-2-((2-ethoxyphenoxy)methyl)morpholine]
pharmacological activity as compared to the (R)-(+)-isomer [2]: five times

Source: patent publication US11964951B2, “Process of making derivatives of substituted morpholines” (Supernus Pharmaceuticals, Inc., priority 2022, dated 2024)
